Measured values as given in patent publication US20080113016A1, “Method for Prevention or Treatment of Inflammatory Disease” (priority 2004, published 2008).
“Also recorded” adds a separate entry of the source. Where two headings read alike, the source gives them in different places. Marks after values point to notes of the source that are not given here.

How the values were obtained:
[1] = tested on: rats with adjuvant arthritis; experiment: Adjuvant arthritis: radiographic joint damage, semiquantitative score; type: in vivo, rat
Protocol: (§1) Adjuvant arthritis. Male Lewis rats (150-200 g) were immunized at the base of the tail with 0.1 ml of complete Freund's adjuvant (CFA) on day 0. […] Clinical signs of arthritis generally begin on day 10, and paw swelling was determined every second day by water displacement plethysmometry. […] Prior to daily drug delivery, rats were individually assessed for ability to walk and bear weight on their hind paws. On the day of sacrifice, a probe with a 24 gm bending force was applied to the lateral ankle of each hind paw for 4 s. Animals were graded (0/1) on whether they vocalized. Roentgenograms were obtained of the hind paws to assess bone changes using a semi-quantitative scoring system (demineralization (0 to 2+), ankle and mid-foot erosions (0 to 2+), calcaneal erosion (0 to 1+), heterotopic bone formation (0 to 1+) (maximum possible score=6). Paws were fixed in formalin and decalcified for 2-3 days. Sections from paraffin embedded tissue were stained with hematoxylin and eosin. A synovial inflammation score was determined using a semi-quantitative scale that measures synovial inflammation (0-2+), cartilage integrity (0-2+), bone erosions (0-2+), marrow infiltration (0-2+), proteoglycans loss (0-2+ in safranin 0 stained sections) and extra-articular inflammation (0-2+) (maximum score 12). Subjective assessments were made by an investigator blinded to the drug treatment.

[2] = tested on: spinal nerve ligation; details: administered intrathecally before spinal nerve ligation, cited from earlier work
[3] = tested on: rats with adjuvant arthritis; experiment: Adjuvant arthritis: paw swelling by water displacement plethysmometry; type: in vivo, rat
Protocol: […] Paw swelling was measured by water displacement plethysmometry.
(§2) Intrathecal (IT) catherization of rats. All animals were handled in accordance with USDA guidelines, and all procedures have been carefully reviewed and approved by the institutional animal subjects committee. Rats (200-300 g) were housed for at least one week before use. Isoflurane anesthesia was used for all surgical procedures. Animals were implanted with an intrathecal (IT) catheter modified from the method previously described. Yaksh, et al. Physiol. Behav. 17:1031-6, 1976. After a six day recovery period, all animals except those that appeared to have sensory or motor abnormalities (less than 5% of the total number) were used for experiments. For IT administration, 10 μl of drug or vehicle followed by 10 μl of isotonic saline was injected through the catheter.
as §1

[4] = tested on: rats with adjuvant arthritis; experiment: Adjuvant arthritis: histologic joint damage, semiquantitative score; type: in vivo, rat
Protocol: Rats were immunized with CFA on day 0 and treated daily with intrathecal SB203580 (8 μg) or intrathecal saline beginning on day 8-20. Left panel is vehicle and right panel is SB203580. […] Representative sections are shown illustrating decreased erosions, cartilage damage and synovial inflammation in the treated group.
Adjuvant arthritis. Male Lewis rats (150-200 g) were immunized at the base of the tail with 0.1 ml of complete Freund's adjuvant (CFA) on day 0. Drug (IT or subcutaneous SB203580 or IT vehicle) treatment started on day 8 and continued on a daily basis until day 20. Clinical signs of arthritis generally begin on day 10, and paw swelling was determined every second day by water displacement plethysmometry. […] Prior to daily drug delivery, rats were individually assessed for ability to walk and bear weight on their hind paws. On the day of sacrifice, a probe with a 24 gm bending force was applied to the lateral ankle of each hind paw for 4 s. Animals were graded (0/1) on whether they vocalized. […]

[5] = tested on: rats with adjuvant arthritis; experiment: Adjuvant arthritis: behavioral pain (vocalization to 24 gm ankle pressure); type: in vivo, rat; details: 24 gm bending force to lateral ankle for 4 s on day 20
Text: The effect of IT SB203580 on the clinical manifestations of adjuvant arthritis was examined. […] Paw swelling was inversely correlated with behavioral analysis as determined by weight bearing in hind limbs.
as §2
Adjuvant arthritis. Male Lewis rats (150-200 g) were immunized at the base of the tail with 0.1 ml of complete Freund's adjuvant (CFA) on day 0. […] Clinical signs of arthritis generally begin on day 10, and paw swelling was determined every second day by water displacement plethysmometry. […] Prior to daily drug delivery, rats were individually assessed for ability to walk and bear weight on their hind paws. […]

[6] = tested on: synovial IL-1, IL-6 and MMP3 gene expression; experiment: Adjuvant arthritis: joint gene expression by quantitative real time PCR; type: in vivo, rat; details: intrathecal 8 μg daily day 8-20 vs IT saline, hind paws
Protocol: Rats were immunized with CFA on day 0 and treated daily with intrathecal SB203580 (8 μg) or intrathecal saline beginning on day 8-20. (A) Quantitative real time PCR was performed on the hind paws. Normal rat joints are also shown as a control.
Q-PCR. Ankle joints were excised and trimmed of skin. The tissue was then pulverized and RNA extracted using RNA-STAT-60 and standard techniques. The RNA was reversed transcribed into cDNA using random hexamer primers. TaqMan PCR amplification reactions were carried out in reaction volumes of 25 μl in MicroAmp Optical Plates and MicroAmp Optical Caps using the TaqMan Universal Master Mix with a Perkin Elmer 5700 thermal cycler. Each sample was analyzed in triplicate using 50 ng of cDNA in the reaction. Thermal cycling was initiated with a 2 min incubation at 50° C., followed by 10 min at 95° C. to activate the AmpliTaq polymerase and then 40 cycles of 95° C. for 15 s/60° C. for 1 min. GADPH was used as a loading control for in each sample. The standard curve method was used for quantification as previously described. Boyle, et al. Arthritis Res. Ther. 5:R352-360, 2003.

[7] = intrathecal etanercept 100 or 300 μg q.o.d.

| Compound | Radiographic evidence of joint destruction [1, 7] | Allodynia [2] | Increase in spinal cord P-p38 / p38 activation [2] | Increase in spinal cord P-p38 / p38 activation ([2]; listed as etanercept) | Paw swelling [3, 7] | Paw swelling ([3]; subcutaneous 50 μg every other day from day 1, day 20) [mL] | Paw swelling ([3]; subcutaneous 100 μg every other day from day 1, day 20) [mL] | Paw swelling ([3]; subcutaneous 300 μg every other day from day 1, day 20) [mL] | Paw swelling on day 20 ([3]; systemic treatment with the same doses as intrathecal) | Radiographic joint damage (bone erosions, cartilage loss, demineralization) ([1]; intrathecal 8 μg daily day 8-20, p<0.05) | Radiographic joint damage ([1]; systemic (subcutaneous) treatment, same dose 8 μg) | Histologic joint damage and inflammation (semiquantitative score) ([4]; intrathecal 8 μg daily day 8-20 vs IT saline) | Leukocyte infiltration into synovium ([4]; intrathecal catheter administration) | Positive vocalization (animals that vocalize / total number) ([5]; intrathecal (IT) SB203580 8 μg daily day 8-20) | Positive vocalization (animals that vocalize / total number) ([5]; subcutaneous (SC) SB203580 8 μg daily day 8-20) | Synovial IL-1 gene expression [6] | Synovial IL-6 gene expression [6] | MMP3 gene expression ([6]; p<0.05) | Paw swelling ([3]; intrathecal 8 μg daily day 8-20, compared with IT saline or same dose subcutaneously) | Effect in adjuvant arthritis (paw swelling, synovial infiltration, joint destruction) ([3]; same dose (8 μg) delivered systemically (subcutaneous)) |
| --- | --- | --- | --- | --- | --- | --- | --- | --- | --- | --- | --- | --- | --- | --- | --- | --- | --- | --- | --- | --- |
| Etanercept | significantly decreased | inhibits | blocks | inhibits | significantly decreased | 1.51 ± 0.20 | 1.75 ± 0.18 | 1.67 ± 0.16 | no effect |  |  |  |  |  |  |  |  |  |  |  |
| C[S+]([O-])c1ccc(-c2nc(-c3ccncc3)c(-c3ccc(F)cc3)[nH]2)cc1 (centres unmarked) [SB203580] |  |  |  |  |  |  |  |  |  | significantly decreased | no effect | significantly decreased | decreased | 0/6** | 4/6 | significantly decreased | significantly decreased | significantly decreased | significantly decreased; also recorded: markedly suppressed | no effect |
